Data from article PMC7684622, “The application of L‐glutaminase for the synthesis of the immunomodulatory γ‐D‐glutamyl‐L‐tryptophan and the kokumi‐imparting γ‐D‐glutamyl peptides” (Food Science & Nutrition, 2020).

Legend:
Type in all cases: biochemical
[1] = system: T1, L-glutaminase of Bacillus amyloliquefaciens; experiment: hydrolysis, HPLC / UPLC-MS; conditions: hydrolysis reaction; apparent
T1 construct: gene ggt; commercial enzyme preparation (Amano Enzyme China); called L-Gln amidohydrolase EC 3.5.1.2 with gamma-glutamyl transpeptidase activity
Description: hydrolysis, HPLC / UPLC-MS on L-glutaminase of Bacillus amyloliquefaciens

[2] = system: T1, L-glutaminase of Bacillus amyloliquefaciens; experiment: transpeptidation, gamma-D-Glu-L-Trp formed, by HPLC / UPLC-MS; conditions: gamma-glutamyl donor; fixed 25 mM L-Trp; apparent; read-out: Synthesis
Description: transpeptidation, gamma-D-Glu-L-Trp formed, by HPLC / UPLC-MS on L-glutaminase of Bacillus amyloliquefaciens

[3] = system: T1, L-glutaminase of Bacillus amyloliquefaciens; experiment: transpeptidation, gamma-L-Glu-L-Trp formed, by HPLC / UPLC-MS; conditions: gamma-glutamyl donor; fixed 25 mM L-Trp; apparent; read-out: Synthesis
Description: transpeptidation, gamma-L-Glu-L-Trp formed, by HPLC / UPLC-MS on L-glutaminase of Bacillus amyloliquefaciens

[4] = system: T1, L-glutaminase of Bacillus amyloliquefaciens; experiment: transpeptidation, product by HPLC / UPLC-MS; conditions: acceptor; fixed 25 mM D-Gln; apparent; read-out: Synthesis
Description: transpeptidation, product by HPLC / UPLC-MS on L-glutaminase of Bacillus amyloliquefaciens

SMILES	Km [1] [mM]	Km [4] [mM]	further results
CC(C)[C@H](NC(=O)CC[C@@H](NC(=O)CC[C@@H](N)C(=O)O)C(=O)O)C(=O)O [γ-[D-Glu]2-L-Val]	90.4 ± 6.25	–	–
NC(=O)CC[C@@H](N)C(=O)O [D-Gln]	–	–	Km [2]: 5.53 ± 0.98 mM
NC(=O)CC[C@H](N)C(=O)O [L-Gln]	–	–	Km [3]: 0.98 ± 0.08 mM
CSCC[C@H](NC(=O)CC[C@@H](N)C(=O)O)C(=O)O [γ-D-Glu-L-Met]	62.2 ± 4.61	–	–
CC(C)[C@H](NC(=O)CC[C@@H](N)C(=O)O)C(=O)O [γ-D-Glu-L-Val]	68.8 ± 5.25	–	–
CC(C)[C@H](N)C(=O)O [L-Val]	–	76.6 ± 3.25	–
CSCC[C@H](N)C(=O)O [L-Met]	–	88.8 ± 6.12	–

The next lines start with results.

Km [1] [mM]	Km [4] [mM]	SMILES	further results
15.7 ± 1.82	–	N[C@@H](CCC(=O)N[C@@H](Cc1c[nH]c2ccccc12)C(=O)O)C(=O)O [γ-L-Glu-L-Trp]	–
36.7 ± 2.86	–	N[C@H](CCC(=O)N[C@@H](Cc1c[nH]c2ccccc12)C(=O)O)C(=O)O [γ-D-Glu-L-Trp]	–
–	32.5 ± 3.86	N[C@@H](Cc1c[nH]c2ccccc12)C(=O)O [L-Trp]	–
52.8 ± 3.02	–	N[C@H](CCC(=O)N[C@@H](Cc1ccccc1)C(=O)O)C(=O)O [γ-D-Glu-L-Phe]	–
–	46.3 ± 2.32	N[C@@H](Cc1ccccc1)C(=O)O [L-Phe]	–
